Structures can show the parent of a compound that is named as a salt. Where two headings read alike, the source gives them in different places.

One series has as its target SARS‐CoV PL^pro (Severe acute respiratory syndrome coronavirus, UniProt P0C6X7). Briefly: biochemical. Type of series: biochemical.
The next series has as its target SARS‐CoV‐2 PL^pro (Severe acute respiratory syndrome coronavirus 2, UniProt P0DTD1). Briefly: biochemical. It counts as biochemical.
[1] abbreviates: read-out: Inhibition SARS‐CoV PL^pro, class (Table 1).
[2] abbreviates: read-out: Inhibition SARS‐CoV‐2 PL^pro, class (Table 2).
Where [3] appears, read: read-out: Percentage inhibition SARS‐CoV PL^pro.
Setting [4] is: read-out: Inhibition SARS‐CoV‐2 PL^pro, class (Table 1).
The mark [5] stands for this setting: read-out: Inhibition SARS‐CoV PL^pro, class (Table 2).

Regarding `Cc1ccc(NC(=O)OC(C)(C)C)cc1C(=O)N[C@H](C)c1cccc2ccccc12` [Compound 2 q, (R)‐tert‐Butyl (4‐Methyl‐3‐((1‐(naphth‐1‐yl)ethyl)carbamoyl)phenyl) carbamate], the midpoint of inhibition on SARS‐CoV PL^pro, the IC50, lay at 4.6 ± 0.4 µM.
Regarding `C[C@@H](NC(=O)c1ccccc1C(F)(F)F)c1cccc2ccccc12` [Compound 2 d, N ‐[(1R)‐1‐Naphth‐1‐ylethyl]‐2‐(trifluormethyl)benzamide], the inhibition at 100 µM at SARS‐CoV PL^pro (setting [1]) is less than 50%.
In the case of `Cc1cc(NS(C)(=O)=O)ccc1C(=O)N[C@H](C)c1cccc2ccccc12` [Compound 2 s, 2‐Methyl‐4‐[(methylsulfonyl)amino]‐N‐[(1R)‐1‐naphth‐1‐ylethyl]benzamide], the figures for the 50% inhibitory concentration (IC50) at SARS‐CoV‐2 PL^pro and on SARS‐CoV PL^pro were 10 ± 1 µM and 4.8 ± 0.3 µM, respectively.
In the case of `Cc1cc(NC(=O)OC(C)(C)C)ccc1C(=O)N[C@H](C)c1cccc2ccccc12` [Compound 2 o, (R)‐tert‐Butyl(3‐Methyl‐4‐((1‐(naphth‐1‐yl)ethyl)carbamoyl)phenyl)carbamate], it took 1.6 ± 0.3 µM to reach half-maximal inhibition against SARS‐CoV PL^pro (IC50).
Take `Cc1cccc2c1CN([C@H](C)c1cccc3ccccc13)C2.Cl` [Compound 14 a, 4‐Methyl‐2‐[(1R)‐1‐naphth‐1‐ylethyl]‐2,3‐dihydro‐1H‐isoindol hydrochloride]: the melting point came to 247 °C. Moreover, the inhibition at 100 µM at SARS‐CoV‐2 PL^pro (setting [2]) was less than 50%. In addition, at SARS‐CoV PL^pro (setting [3]), the inhibition at 10 µM was found to be 45%.
For `Cc1ccccc1C(=O)NC(CO)c1cccc2ccccc12` (centres unmarked) [Compound 8, N ‐(2‐Hydroxy‐1‐naphth‐1‐ylethyl)‐2‐methylbenzamide], the “Inhibition of SARS‐CoV PL^pro, in words” value on SARS‐CoV PL^pro is recorded as “inactivity”. For the same compound, on SARS‐CoV PL^pro (setting [1]), the inhibition at 100 µM is less than 50%.
Consider `COc1ccc2c(c1)CN([C@H](C)c1cccc3ccccc13)C2` [Compound 14 d, 5‐Methoxy‐2‐[(1R)‐1‐naphth‐1‐ylethyl]‐2,3‐dihydro‐1H‐isoindol], for which the inhibition at 100 µM at SARS‐CoV‐2 PL^pro (setting [2]) is less than 50%. This compound yielded a 50% inhibitory concentration (IC50) on SARS‐CoV PL^pro of 14 ± 1 µM.
Turning to `Cc1ccccc1C(=O)NC(C)c1ccccc1` (centres unmarked) [Compound 4 a, 2‐Methyl‐N‐(1‐phenyl)benzamide], on SARS‐CoV PL^pro (setting [1]), the inhibition at 100 µM is less than 50%.
The compound `C[C@@H](NC(=O)Cc1ccccc1)c1cccc2ccccc12` [Compound 2 l, N ‐[(1R)‐1‐Naphth‐1‐ylethyl]‐2‐phenylacetamid] registered a melting point of 130 °C. For the same compound, the inhibition at 100 µM on SARS‐CoV PL^pro (setting [3]) came out at 57%.
As to `Cc1ccccc1C(=O)NC(c1ccccc1)c1ccccc1` [Compound 4 c, N ‐(Diphenylmethyl)‐2‐methylbenzamide], on SARS‐CoV PL^pro, the “Inhibition of SARS‐CoV PL^pro, in words” value is “inactive”. Moreover, the inhibition at 100 µM on SARS‐CoV PL^pro (setting [1]) was less than 50%.
On to `C[C@@H](NC(=O)c1ccccc1I)c1cccc2ccccc12` [Compound 2 h, 2‐Iodo‐N‐[(1R)‐1‐naphth‐1‐ylethyl]benzamide], for which the melting point is 161 °C. Moreover, at SARS‐CoV‐2 PL^pro (setting [4]), the inhibition at 100 µM is less than 50%. On SARS‐CoV PL^pro, this compound yielded an IC50 of 25 ± 3 µM.
As for `Cc1ccccc1CN[C@H](C)c1cccc2ccccc12` [Compound 17, (1R)‐N‐(2‐Methylbenzyl)‐1‐naphth‐1‐ylethylamine hydrochloride], at SARS‐CoV PL^pro (setting [3]), the inhibition at 100 µM was 55%.
Turning to `Cc1ccccc1C(=O)N[C@H](C)c1cccc2ccccc12` [Compound 2 a, 2‐Methyl‐N‐[(1R)‐naphth‐1‐ylethyl]benzamide, reference compound], the IC50 against SARS‐CoV‐2 PL^pro was 6.9 ± 0.7 µM.
For the compound `C[C@@H](NC(=O)C1CCCCC1)c1cccc2ccccc12` [Compound 2 j, N ‐[(1R)‐1‐Naphth‐1‐ylethyl]cyclohexanecarboxamide], the melting point was 170 °C. The “Inhibition of SARS‐CoV PL^pro, in words” value at SARS‐CoV PL^pro was “inactive”. Further, the inhibition at 100 µM on SARS‐CoV PL^pro (setting [1]) is less than 50%.
Compound `C[C@@H](NC(=O)c1ccccc1)c1cccc2ccccc12` [Compound 2 c, N ‐[(1R)‐1‐Naphth‐1‐ylethyl]benzamide] registered a melting point of 195 °C. Moreover, the inhibition at 100 µM on SARS‐CoV‐2 PL^pro (read-out: Percentage inhibition SARS‐CoV‐2 PL^pro) is 60%. At SARS‐CoV PL^pro, this compound showed an IC50 of 62 ± 5 µM.
`CC(C(=O)NC1CCCCC1)c1cccc2ccccc12` (centres unmarked) [Compound 11 d, N ‐Cyclohexyl‐2‐naphth‐1‐ylpropanamide] came in with a melting point of 151 °C. The inhibition at 100 µM on SARS‐CoV‐2 PL^pro (setting [4]) is less than 50%. In addition, the inhibition at 100 µM at SARS‐CoV PL^pro (setting [1]) was less than 50%.
Regarding `C[C@@H](c1cccc2ccccc12)N1Cc2ccccc2C1.Cl` [Compound 14 i, 2‐[(1S)‐1‐Naphth‐1‐ylethyl]‐2,3‐dihydro‐1H‐isoindol hydrochloride], the “Inhibition of SARS‐CoV‐2 PL^pro, in words” value at SARS‐CoV‐2 PL^pro was “not show inhibitory activity”. Further, the inhibition at 100 µM on SARS‐CoV‐2 PL^pro (setting [2]) and at SARS‐CoV PL^pro (setting [5]) was less than 50% each time. Also, on SARS‐CoV PL^pro, the “Inhibition of SARS‐CoV PL^pro, in words” value is “abolished activity”.
Regarding `C[C@H](c1cccc2ccccc12)N1Cc2ccc([N+](=O)[O-])cc2C1` [Compound 14 f, 2‐[(1R)‐1‐Naphth‐1‐ylethyl]‐5‐nitro‐2,3‐dihydro‐1H‐isoindole], the “Inhibition of SARS‐CoV PL^pro, in words” value at SARS‐CoV PL^pro is reported as “Inactive”. Also, the inhibition at 100 µM at SARS‐CoV PL^pro (setting [5]) is less than 50%.
Consider “2‐Methyl‐N‐(naphth‐1‐ylethyl]benzamide [Compound 4 b]”, for which the “Inhibition of SARS‐CoV PL^pro, in words” value on SARS‐CoV PL^pro is “inactive”. Moreover, on SARS‐CoV PL^pro (100 µM), the “Inhibition SARS‐CoV PL^pro, class (Table 1)” value was “n.a.^[b] (key: Compounds with inhibitory effect less than 50 % at 100 μM compared to DMSO were labelled as not active (n.a.))”.
Consider `C[C@@H](NC(=O)C(c1ccccc1)c1ccccc1)c1cccc2ccccc12` [Compound 2 m, (R)‐N‐(1‐(naphthalen‐1‐yl)ethyl)‐2,2‐diphenylacetamide], for which the melting point turned out to be 152 °C. Besides, the “Inhibition of SARS‐CoV PL^pro, in words” value on SARS‐CoV PL^pro is on record as “no inhibition”. For the same compound, the inhibition at 100 µM on SARS‐CoV PL^pro (setting [1]) was less than 50%.
Regarding `c1ccc2c(c1)CN(Cc1cccc3ccccc13)C2` [Compound 14 c, 2‐(Naphth‐1‐ylmethyl)‐2,3‐dihydro‐1H‐isoindol hydrochloride], the inhibition at 100 µM on SARS‐CoV PL^pro (setting [5]) is less than 50%.
`C[C@H](c1cccc2ccccc12)N1Cc2ccc(O)cc2C1` [Compound 14 l, 2‐[(1R)‐1‐Naphth‐1‐ylethyl]‐2,3‐dihydro‐1H‐isoindol‐5‐ol hydrochloride] showed an IC50 on SARS‐CoV PL^pro of 4.5 ± 0.4 µM.
Take `C[C@H](c1cccc2ccccc12)N1Cc2cccc(N)c2C1` [Compound 14 j, 2‐[(1R)‐1‐Naphth‐1‐ylethyl]‐2,3‐dihydro‐1H‐isoindol‐4‐amine]: the inhibition at 100 µM at SARS‐CoV‐2 PL^pro (setting [2]) was less than 50%. Further, the IC50 against SARS‐CoV PL^pro was 32 ± 2 µM.
As to `C[C@H](c1cccc2ccccc12)N1Cc2cccc([N+](=O)[O-])c2C1` [Compound 14 e, 2‐[(1R)‐1‐Naphth‐1‐ylethyl]‐4‐nitro‐2,3‐dihydro‐1H‐isoindole], the “Inhibition of SARS‐CoV PL^pro, in words” value on SARS‐CoV PL^pro is given as “Inactive”. Besides, at SARS‐CoV PL^pro (setting [3]), the inhibition at 10 µM was less than 50%.
Turning to `C[C@@H](NC(=O)C(C)(C)C)c1cccc2ccccc12` [Compound 2 k], the melting point stood at 131 °C. The “Inhibition of SARS‐CoV PL^pro, in words” value on SARS‐CoV PL^pro is “inactive”. For the same compound, at SARS‐CoV PL^pro (setting [1]), the inhibition at 100 µM was less than 50%.
Consider `Cc1ccccc1C(=O)N[C@@H](C)c1cccc2ccccc12` [Compound 4 d, 2‐Methyl‐N‐[(1S)‐1‐naphth‐1‐ylethyl]benzamide], for which the “Inhibition of SARS‐CoV‐2 PL^pro, in words” value on SARS‐CoV‐2 PL^pro is “not show inhibitory activity”. Further, the inhibition at 100 µM on SARS‐CoV‐2 PL^pro (setting [4]) and at SARS‐CoV PL^pro (setting [1]) was less than 50% in each case.
`Cc1ccc(N(C)C)cc1C(=O)N[C@H](C)c1cccc2ccccc12` [Compound 2 r, (R)‐5‐(Dimethylamino)‐2‐methyl‐N‐[1‐(naphth‐1‐yl)ethyl]benzamide]: the IC50 against SARS‐CoV‐2 PL^pro came to 10 ± 2 µM; against SARS‐CoV PL^pro, 4 ± 0.2 µM.
